In series [1] the test system is Blumeria graminis f.sp. hordei. Description: Blumeria graminis test (barley) / protective. The conditions noted are these: 500 ppm active ingredient, protective spray on young barley plants, evaluation 7 days after inoculation; 0% = control, 100% = no infection. The class given is in vivo. Here is the method:
Blumeria graminis Test (Barley)/Protective
(§1) • Solvent: 49 parts by weight of N,N-dimethylacetamide • Emulsifier: 1 part by weight of alkylaryl polyglycol ether
To produce an appropriate active ingredient formulation, 1 part by weight of active ingredient is mixed with the specified amounts of solvent and emulsifier, and the concentrate is diluted with water to the desired concentration. To test for protective activity, young plants are sprayed with the formulation of active ingredient at the stated application rate. After the spray coating has dried on, the plants are dusted with spores of Blumeria graminis f.sp. hordei. The plants are placed in a greenhouse at a temperature of about 18° C. and a relative air humidity of about 80% to promote the development of mildew pustules. Evaluation follows 7 days after the inoculation. 0% means an efficacy which corresponds to that of the control, whereas an efficacy of 100% means that no infection is observed.

A further series has as its system Sphaerotheca fuliginea. Description: Sphaerotheca test (cucumber) / protective. The series is classed as in vivo. The settings on record: 500 ppm active ingredient, protective spray on young cucumber plants, evaluation 7 days after inoculation; 0% = control, 100% = no infection. Here is the method:
Sphaerotheca Test (Cucumber)/Protective
(§2) • Solvent: 49 parts by weight of N,N-dimethylformamide • Emulsifier: 1 part by weight of alkylaryl polyglycol ether
To produce an appropriate active ingredient formulation, 1 part by weight of active ingredient is mixed with the specified amounts of solvent and emulsifier, and the concentrate is diluted with water to the desired concentration. To test for protective activity, young cucumber plants are sprayed with the formulation of active ingredient at the stated application rate. 1 day after the treatment, the plants are inoculated with a spore suspension of Sphaerotheca fuliginea. The plants are then placed in a greenhouse at 70% relative air humidity and a temperature of 23° C. Evaluation follows 7 days after the inoculation. 0% means an efficacy which corresponds to that of the control, whereas an efficacy of 100% means that no infection is observed.

Another series concerns Leptosphaeria nodorum. Kind of series: Leptosphaeria nodorum test (wheat) / protective. The series is classed as in vivo. The settings on record: 500 ppm active ingredient, protective spray on young wheat plants, evaluation 8 days after inoculation; 0% = control, 100% = no infection. Here is the method:
Leptosphaeria nodorum Test (Wheat)/Protective
as §1
To produce an appropriate active ingredient formulation, I part by weight of active ingredient is mixed with the specified amounts of solvent and emulsifier, and the concentrate is diluted with water to the desired concentration. To test for protective activity, young plants are sprayed with the formulation of active ingredient at the stated application rate. After the spray coating has dried on, the plants are sprayed with spores with a spore suspension of Leptosphaeria nodorum. The plants remain in an incubation cabin at 20° C. and 100% relative air humidity for 48 hours. The plants are placed in a greenhouse at a temperature of about 22° C. and a relative air humidity of about 80%. Evaluation follows 8 days after the inoculation. 0% means an efficacy which corresponds to that of the control, whereas an efficacy of 100% means that no infection is observed.

The test system of another series is Alternaria solani. Kind of series: Alternaria test (tomato) / protective. The series is classed as in vivo. The settings on record: 500 ppm active ingredient, protective spray on young tomato plants, evaluation 7 days after inoculation; 0% = control, 100% = no infection. As for the experimental part:
Alternaria Test (Tomato)/Protective
as §2
To produce an appropriate active ingredient formulation, 1 part by weight of active ingredient is mixed with the specified amounts of solvent and emulsifier, and the concentrate is diluted with water to the desired concentration. To test for protective activity, young tomato plants are sprayed with the active ingredient formulation at the stated application rate. One day after the treatment, the plants are inoculated with a spore suspension of Alternaria solani and are then left to stand at 100% relative humidity and 22° C. for 24 h. Subsequently, the plants are left to stand at 96% relative air humidity and a temperature of 20° C. Evaluation follows 7 days after the […]. 0% means an efficacy which corresponds to that of the control, whereas an efficacy of 100% means that no infection is observed.

Series [2] can be described thus: logP by reversed-phase HPLC (EEC Directive 79/831 Annex V.A8). The class given is physicochemical. The conditions noted are these: method [a]: LC-MS, acidic range pH 2.7, 0.1% aqueous formic acid / acetonitrile, linear gradient 10% to 95% acetonitrile. As for the experimental part:
The logP values were measured in accordance with EEC Directive 79/831 Annex V.A8 by HPLC (High Performance Liquid Chromatography) using reversed-phase columns (C 18) by the following methods:
[a] The LC-MS determination in the acidic range is effected at pH 2.7 with 0.1% aqueous formic acid and acetonitrile (contains 0.1% formic acid) as eluents; linear gradient from 10% acetonitrile to 95% acetonitrile.

Regarding `CC(C)(C)C(O)(CSc1ccc(C(F)(F)F)cc1)c1cncs1` (stereo not shown) [Compound 57], the efficacy in series [1] was 80%; with Sphaerotheca fuliginea it was 80%; in the series on Leptosphaeria nodorum it was 90%; with Alternaria solani it was 100%. Besides, in series [2] (C18 reversed phase), the logP result was “log p 3.76^[a]”.

Broadly, the chromatographic logP is a lipophilicity value derived from retention on a column. Higher therefore signals a more lipophilic compound. Regarding `CC(CF)(CF)C(O)(CSc1ccc(Br)cc1)c1cncs1` (stereo not shown) [Compound 3], the efficacy (in series [1]; in the series on Leptosphaeria nodorum) was 100% throughout. In series [2] (reversed-phase C18 HPLC column), this molecule displayed a chromatographic logP of 3.27.

As to `CC(C)(C)C(O)(CSc1ccc(Br)cc1)c1cncs1` (stereo not shown) [Compound 1, 1-[(4-bromophenyl)sulphanyl]-3,3-dimethyl-2-(1,3-thiazol-5-yl)butan-2-ol], the efficacy in series [1] worked out at 89%; with Leptosphaeria nodorum it was 92%.
